Laboratory results reported in ChEMBL document CHEMBL1201862, “PubChem BioAssay data set” (2004).
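Tested at 5 concentrations; 48 h exposure; 96-well plates; endpoints linearly interpolated, else capped at highest concentration. GI50 is the concentration that inhibits growth by half.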 Calls of active or inactive are those of the source. Cut-off read from the data, not from the text of the source: active = GI50 up to about 1.1 µM and inactive = higher.

How the values were obtained:
Assay in all cases: NCI anticancer screen, dose series, 48 h
[1] = tested on: NCI-H226
[2] = tested on: A498
[3] = tested on: NCI-H522
[4] = tested on: SR
[5] = tested on: BT-549
[6] = tested on: LOX IMVI
[7] = tested on: OVCAR-4
[8] = tested on: SNB-19
[9] = tested on: ACHN
[10] = tested on: Hs-578T
[11] = tested on: U-251
[12] = tested on: MOLT-4
[13] = tested on: HCT-116
[14] = tested on: UO-31
[15] = tested on: SW-620
[16] = tested on: IGROV-1
[17] = tested on: SN12C
[18] = tested on: NCI/ADR-RES
[19] = tested on: EKVX
[20] = tested on: HOP-92
[21] = tested on: HT-29
[22] = tested on: OVCAR-5
[23] = tested on: T47D
[24] = tested on: 786-0
[25] = tested on: MDA-MB-435
[26] = tested on: HCC 2998
[27] = tested on: OVCAR-3
[28] = tested on: PC-3
[29] = tested on: SK-MEL-28
[30] = tested on: SK-OV-3
[31] = tested on: MDA-MB-231
[32] = tested on: HL-60
[33] = tested on: UACC-257
[34] = tested on: SK-MEL-5
[35] = tested on: SF-295
[36] = tested on: MDA-N
[37] = tested on: DU-145
[38] = tested on: MCF7
[39] = tested on: KM12
[40] = tested on: NCI-H460
[41] = tested on: CAKI-1
[42] = tested on: UACC-62
[43] = tested on: RXF 393
[44] = tested on: NCI-H23
[45] = tested on: TK-10
[46] = tested on: SK-MEL-2
[47] = tested on: K562
[48] = tested on: M14
[49] = tested on: RPMI-8226
[50] = tested on: SF-268
[51] = tested on: A549
[52] = tested on: SF-539
[53] = tested on: CCRF-CEM
[54] = tested on: Malme-3M
[55] = tested on: COLO 205
[56] = tested on: OVCAR-8
[57] = tested on: SNB-75
[58] = tested on: HOP-62
[59] = tested on: HCT-15
[60] = tested on: LXFL 529
[61] = tested on: KM-20L2
[62] = tested on: DMS-114
[63] = tested on: DLD-1
[64] = tested on: M19-MEL
[65] = tested on: DMS-273

## O=C(O)C(O)C(O)C(O)C(O)CO.[Ba+2] (centres undefined)
[1]
  GI50: > 100 µM (inactive)
[2]
  GI50: > 100 µM (inactive)
[3]
  GI50: > 100 µM (inactive)
[4]
  GI50: > 100 µM (inactive)
[5]
  GI50: > 100 µM (inactive)
[6]
  GI50: > 100 µM (inactive)
[7]
  GI50: > 100 µM (inactive)
[8]
  GI50: > 100 µM (inactive)
[9]
  GI50: > 100 µM (inactive)
[10]
  GI50: > 100 µM (inactive)
[11]
  GI50: > 100 µM (inactive)
[12]
  GI50: > 100 µM (inactive)
[13]
  GI50: > 100 µM (inactive)
[14]
  GI50: > 100 µM (inactive)
[15]
  GI50: > 100 µM (inactive)
[16]
  GI50: > 100 µM (inactive)
[17]
  GI50: > 100 µM (inactive)
[18]
  GI50: > 100 µM (inactive)
[19]
  GI50: > 100 µM (inactive)
[20]
  GI50: > 100 µM (inactive)
[21]
  GI50: > 100 µM (inactive)
[22]
  GI50: > 100 µM (inactive)
[23]
  GI50: > 100 µM (inactive)
[24]
  GI50: > 100 µM (inactive)
[25]
  GI50: > 100 µM (inactive)
[26]
  GI50: > 100 µM (inactive)
[27]
  GI50: > 100 µM (inactive)
[28]
  GI50: > 100 µM (inactive)
[29]
  GI50: > 100 µM (inactive)
[30]
  GI50: > 100 µM (inactive)
[31]
  GI50: > 100 µM (inactive)
[32]
  GI50: 3.12 µM (inactive)
[33]
  GI50: > 100 µM (inactive)
[34]
  GI50: > 100 µM (inactive)
[35]
  GI50: > 100 µM (inactive)
[36]
  GI50: > 100 µM (inactive)
[37]
  GI50: > 100 µM (inactive)
[38]
  GI50: > 100 µM (inactive)
[39]
  GI50: > 100 µM (inactive)
[40]
  GI50: > 100 µM (inactive)
[41]
  GI50: > 100 µM (inactive)
[42]
  GI50: > 100 µM (inactive)
[43]
  GI50: > 100 µM (inactive)
[44]
  GI50: > 100 µM (inactive)
[45]
  GI50: > 100 µM (inactive)
[46]
  GI50: > 100 µM (inactive)
[47]
  GI50: > 100 µM (inactive)
[48]
  GI50: > 100 µM (inactive)
[49]
  GI50: > 100 µM (inactive)
[50]
  GI50: > 100 µM (inactive)
[51]
  GI50: > 100 µM (inactive)
[52]
  GI50: > 100 µM (inactive)
[53]
  GI50: > 100 µM (inactive)
[54]
  GI50: > 100 µM (inactive)
[55]
  GI50: > 100 µM (inactive)
[56]
  GI50: > 100 µM (inactive)
[57]
  GI50: > 100 µM (inactive)
[58]
  GI50: > 100 µM (inactive)
[59]
  GI50: > 100 µM

## O=C(c1ccc(O)cc1)C1c2c3c(cc(O)c2C(c2ccc(O)cc2)C1c1cc(O)cc(O)c1)OC(c1ccc(O)cc1)C3c1cc2c(cc1O)OC(c1ccc(O)cc1)C2c1cc(O)cc(O)c1 (centres undefined)
[1]
  GI50: > 12.5 µM (inactive)
[2]
  GI50: > 12.5 µM (inactive)
[3]
  GI50: > 12.5 µM (inactive)
[4]
  GI50: > 12.5 µM (inactive)
[6]
  GI50: > 12.5 µM (inactive)
[7]
  GI50: > 12.5 µM (inactive)
[8]
  GI50: > 12.5 µM (inactive)
[9]
  GI50: > 12.5 µM (inactive)
[11]
  GI50: > 12.5 µM (inactive)
[12]
  GI50: > 12.5 µM (inactive)
[60]
  GI50: > 12.5 µM (inactive)
[13]
  GI50: > 12.5 µM (inactive)
[14]
  GI50: > 12.5 µM (inactive)
[15]
  GI50: > 12.5 µM (inactive)
[17]
  GI50: > 12.5 µM (inactive)
[19]
  GI50: > 12.5 µM (inactive)
[20]
  GI50: > 12.5 µM (inactive)
[22]
  GI50: > 12.5 µM (inactive)
[24]
  GI50: > 12.5 µM (inactive)
[26]
  GI50: > 12.5 µM (inactive)
[27]
  GI50: > 12.5 µM (inactive)
[61]
  GI50: > 12.5 µM (inactive)
[29]
  GI50: > 12.5 µM (inactive)
[62]
  GI50: > 12.5 µM (inactive)
[32]
  GI50: > 12.5 µM (inactive)
[33]
  GI50: > 12.5 µM (inactive)
[34]
  GI50: > 12.5 µM (inactive)
[63]
  GI50: > 12.5 µM (inactive)
[39]
  GI50: > 12.5 µM (inactive)
[40]
  GI50: > 12.5 µM (inactive)
[41]
  GI50: > 12.5 µM (inactive)
[64]
  GI50: > 12.5 µM (inactive)
[42]
  GI50: 0.065 µM (active)
[44]
  GI50: > 12.5 µM (inactive)
[45]
  GI50: > 12.5 µM (inactive)
[46]
  GI50: > 12.5 µM (inactive)
[47]
  GI50: > 12.5 µM (inactive)
[48]
  GI50: > 12.5 µM (inactive)
[49]
  GI50: > 12.5 µM (inactive)
[50]
  GI50: > 12.5 µM (inactive)
[51]
  GI50: > 12.5 µM (inactive)
[52]
  GI50: > 12.5 µM (inactive)
[53]
  GI50: > 12.5 µM (inactive)
[54]
  GI50: > 12.5 µM (inactive)
[65]
  GI50: > 12.5 µM (inactive)
[55]
  GI50: > 12.5 µM (inactive)
[56]
  GI50: > 12.5 µM (inactive)
[57]
  GI50: > 12.5 µM (inactive)
[58]
  GI50: > 12.5 µM (inactive)
[59]
  GI50: > 12.5 µM
